Measured values reported in the NIST ThermoML archive (doi:10.1016/j.jct.2014.01.008).
“And” between values parts separate entries of the source, which are not always exact repeats. Equal values may be shown once.

What was measured:
[1] = Liquid, Falling or rolling sphere viscometry
[2] = Solid-liquid equilibrium temperature; details: Crystal, visual observation

CCCCCCCCCCCCCCCCCCCC [eicosane]
[1]
Details | viscosity
325.8 K, 6700 kPa | 3.184 mPa·s and 3.193 mPa·s
325.8 K, 14400 kPa | 3.511 mPa·s and 3.528 mPa·s
325.8 K, 21300 kPa | 3.828 mPa·s
325.8 K, 22300 kPa | 3.908 mPa·s
325.8 K, 28700 kPa | 4.25 mPa·s
325.8 K, 35500 kPa | 4.642 mPa·s
429.3 K, 5500 kPa | 0.837 mPa·s
429.3 K, 7400 kPa | 0.858 mPa·s
429.3 K, 21800 kPa | 1.029 mPa·s
429.3 K, 41800 kPa | 1.262 mPa·s
429.3 K, 63000 kPa | 1.498 mPa·s and 1.523 mPa·s
429.3 K, 83000 kPa | 1.777 mPa·s
429.3 K, 103700 kPa | 2.043 mPa·s
429.3 K, 125000 kPa | 2.351 mPa·s
429.3 K, 144500 kPa | 2.631 mPa·s
429.3 K, 144700 kPa | 2.638 mPa·s
429.3 K, 167900 kPa | 2.988 mPa·s
429.3 K, 187900 kPa | 3.321 mPa·s
429.3 K, 208900 kPa | 3.685 mPa·s
429.3 K, 228600 kPa | 4.04 mPa·s
429.3 K, 243100 kPa | 4.327 mPa·s
533.8 K, 6200 kPa | 0.346 mPa·s
533.8 K, 22900 kPa | 0.425 mPa·s
533.8 K, 43300 kPa | 0.541 mPa·s
533.8 K, 43500 kPa | 0.541 mPa·s
533.8 K, 63200 kPa | 0.647 mPa·s
533.8 K, 84300 kPa | 0.75 mPa·s
533.8 K, 104400 kPa | 0.861 mPa·s
533.8 K, 125000 kPa | 0.977 mPa·s
533.8 K, 146100 kPa | 1.097 mPa·s
533.8 K, 165900 kPa | 1.199 mPa·s
533.8 K, 187300 kPa | 1.341 mPa·s
533.8 K, 208200 kPa | 1.444 mPa·s
533.8 K, 228800 kPa | 1.556 mPa·s

[2]
Details | Solid-liquid equilibrium temperature [K]
21600 kPa | 315.6
61500 kPa | 325.3
105500 kPa | 334.8
153800 kPa | 344.6
218800 kPa | 355.9
263800 kPa | 364.3

CCCCCCCCCCCCCCCC [hexadecane]
[1]
Details | viscosity
303.9 K, 3300 kPa | 2.826 mPa·s
303.9 K, 7300 kPa | 2.959 mPa·s
303.9 K, 12900 kPa | 3.184 mPa·s
303.9 K, 19000 kPa | 3.454 mPa·s
303.9 K, 26800 kPa | 3.793 mPa·s
303.9 K, 33600 kPa | 4.107 mPa·s
325.7 K, 8100 kPa | 1.943 mPa·s
325.7 K, 8300 kPa | 1.956 mPa·s
325.7 K, 21500 kPa | 2.263 mPa·s
325.7 K, 35600 kPa | 2.675 mPa·s
325.7 K, 49300 kPa | 3.067 mPa·s
325.7 K, 63600 kPa | 3.55 mPa·s
325.7 K, 77500 kPa | 4.056 mPa·s
325.7 K, 91800 kPa | 4.625 mPa·s
325.7 K, 104100 kPa | 5.179 mPa·s
325.7 K, 119200 kPa | 5.865 mPa·s
325.7 K, 122700 kPa | 6.07 mPa·s
429.1 K, 12800 kPa | 0.582 mPa·s and 0.586 mPa·s
429.1 K, 22200 kPa | 0.649 mPa·s
429.1 K, 22700 kPa | 0.65 mPa·s
429.1 K, 35800 kPa | 0.742 mPa·s
429.1 K, 70500 kPa | 1.01 mPa·s
429.1 K, 91600 kPa | 1.181 mPa·s
429.1 K, 118800 kPa | 1.405 mPa·s
429.1 K, 140300 kPa | 1.594 mPa·s
429.1 K, 167800 kPa | 1.847 mPa·s
429.1 K, 188000 kPa | 2.046 mPa·s
429.1 K, 222900 kPa | 2.459 mPa·s
533.7 K, 14100 kPa | 0.272 mPa·s
533.7 K, 14300 kPa | 0.276 mPa·s
533.7 K, 29900 kPa | 0.341 mPa·s
533.7 K, 30100 kPa | 0.342 mPa·s
533.7 K, 50400 kPa | 0.43 mPa·s
533.7 K, 50500 kPa | 0.433 mPa·s
533.7 K, 77100 kPa | 0.534 mPa·s
533.7 K, 104600 kPa | 0.642 mPa·s
533.7 K, 125000 kPa | 0.721 mPa·s
533.7 K, 152800 kPa | 0.829 mPa·s
533.7 K, 188400 kPa | 0.983 mPa·s
533.7 K, 210000 kPa | 1.077 mPa·s
533.7 K, 226600 kPa | 1.154 mPa·s

[2]
Details | Solid-liquid equilibrium temperature [K]
54300 kPa | 303.6
106300 kPa | 314.5
158900 kPa | 325
210600 kPa | 333.9
267700 kPa | 344.4

CCCCCCCCCCCCCCCCCC [octadecane]
[1]
Details | viscosity
325.6 K, 9800 kPa | 2.598 mPa·s
325.6 K, 16400 kPa | 2.778 mPa·s
325.6 K, 29600 kPa | 3.247 mPa·s
325.6 K, 37200 kPa | 3.568 mPa·s
325.6 K, 51000 kPa | 4.157 mPa·s
325.6 K, 60500 kPa | 4.578 mPa·s
325.6 K, 69000 kPa | 4.98 mPa·s
325.6 K, 70800 kPa | 5.095 mPa·s
428.9 K, 6800 kPa | 0.685 mPa·s
428.9 K, 21900 kPa | 0.831 mPa·s
428.9 K, 42100 kPa | 1.023 mPa·s
428.9 K, 63400 kPa | 1.232 mPa·s
428.9 K, 84300 kPa | 1.446 mPa·s
428.9 K, 104900 kPa | 1.649 mPa·s
428.9 K, 125500 kPa | 1.878 mPa·s
428.9 K, 147800 kPa | 2.125 mPa·s
428.9 K, 168000 kPa | 2.392 mPa·s
428.9 K, 188600 kPa | 2.65 mPa·s
428.9 K, 209600 kPa | 2.928 mPa·s
428.9 K, 230000 kPa | 3.207 mPa·s
428.9 K, 243100 kPa | 3.396 mPa·s
533.9 K, 9200 kPa | 0.303 mPa·s
533.9 K, 9500 kPa | 0.305 mPa·s
533.9 K, 15200 kPa | 0.336 mPa·s
533.9 K, 22500 kPa | 0.38 mPa·s
533.9 K, 44600 kPa | 0.497 mPa·s
533.9 K, 64000 kPa | 0.579 mPa·s
533.9 K, 85700 kPa | 0.686 mPa·s
533.9 K, 105900 kPa | 0.784 mPa·s
533.9 K, 126600 kPa | 0.88 mPa·s
533.9 K, 147600 kPa | 0.975 mPa·s and 0.985 mPa·s
533.9 K, 167700 kPa | 1.077 mPa·s
533.9 K, 188600 kPa | 1.201 mPa·s
533.9 K, 209100 kPa | 1.313 mPa·s
533.9 K, 229300 kPa | 1.411 mPa·s
533.9 K, 242900 kPa | 1.491 mPa·s

[2]
Details | Solid-liquid equilibrium temperature [K]
59900 kPa | 315.2
102800 kPa | 324.6
151000 kPa | 334.8
205400 kPa | 344.7
256400 kPa | 354.2
